Assays:
JAK3 enzyme = target: T1, JAK3 enzyme (Homo sapiens, UniProt P52333); assay: JAK Caliper Enzyme Assay at 1 mM ATP; type: biochemical
T1 sequence (P52333 1-1124): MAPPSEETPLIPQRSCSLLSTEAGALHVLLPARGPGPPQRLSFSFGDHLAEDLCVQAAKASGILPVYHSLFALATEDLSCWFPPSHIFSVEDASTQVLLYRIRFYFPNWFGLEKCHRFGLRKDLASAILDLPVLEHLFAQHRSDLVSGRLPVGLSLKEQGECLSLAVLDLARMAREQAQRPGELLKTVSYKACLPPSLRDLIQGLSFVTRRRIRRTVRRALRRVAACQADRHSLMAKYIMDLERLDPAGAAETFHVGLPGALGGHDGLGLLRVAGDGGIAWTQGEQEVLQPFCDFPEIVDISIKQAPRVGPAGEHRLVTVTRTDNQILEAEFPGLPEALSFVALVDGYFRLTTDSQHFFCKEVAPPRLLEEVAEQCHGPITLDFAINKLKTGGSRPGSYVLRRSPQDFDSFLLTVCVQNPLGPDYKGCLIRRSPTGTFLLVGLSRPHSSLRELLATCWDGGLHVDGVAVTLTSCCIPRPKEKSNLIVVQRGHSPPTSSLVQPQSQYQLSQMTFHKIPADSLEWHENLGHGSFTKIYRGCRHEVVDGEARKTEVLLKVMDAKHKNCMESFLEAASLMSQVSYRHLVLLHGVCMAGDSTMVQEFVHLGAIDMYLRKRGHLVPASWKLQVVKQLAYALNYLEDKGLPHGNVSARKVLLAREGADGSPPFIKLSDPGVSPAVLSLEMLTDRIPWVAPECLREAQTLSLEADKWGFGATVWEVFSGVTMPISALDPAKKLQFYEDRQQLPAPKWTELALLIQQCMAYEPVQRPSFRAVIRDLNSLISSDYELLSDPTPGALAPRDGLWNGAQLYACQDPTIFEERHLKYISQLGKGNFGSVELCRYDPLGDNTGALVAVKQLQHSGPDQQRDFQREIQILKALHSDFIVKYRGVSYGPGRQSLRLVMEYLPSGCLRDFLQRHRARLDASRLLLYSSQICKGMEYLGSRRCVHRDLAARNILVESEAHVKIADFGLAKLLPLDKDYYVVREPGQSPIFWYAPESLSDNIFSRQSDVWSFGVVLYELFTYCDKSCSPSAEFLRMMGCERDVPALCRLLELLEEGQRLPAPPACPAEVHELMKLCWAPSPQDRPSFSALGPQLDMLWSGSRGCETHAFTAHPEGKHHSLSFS
Summary of the method: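 Read-out: microfluidic mobility-shift separation quantifying substrate peptide versus phosphopeptide. Compounds were tested as 11-point half-log dilutions, top 600 μM in DMSO before transfer. Enzyme level and reaction time were tuned for each prep so conversion stayed at 20%-30%.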

[1] = tested on: IL-15 induced P-STAT5 in human PBMC; assay: PBMC IL-15 Induced P-STAT5; type: cell-based; details: human PBMC, IL-15 final 41 ng/mL; read-out: PBMC IL15_pSTAT5_IC50
Summary of the method: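 Flow cytometry gated on total lymphocytes measured STAT5 staining (Alexa Fluor 647 antibody, overnight, 4 °C) in fixed, methanol-permeabilised human PBMC. Cells had received compound for 15 min at 37 °C (0.2% DMSO final), followed by 41 ng/mL final human IL-15 for 15 min.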

Compound	IC50 (JAK3 enzyme) [nM]	IC50 [1] [nM]
C=CC(=O)N1CC[C@@H](Oc2cnc3[nH]cc(C(=O)NCC)c3n2)C[C@@H]1C (single isomer, unassigned) [Example 79]	77	264
C=CC(=O)N1CCC(Oc2cnc3[nH]cc(C(=O)N[C@@H]4CCC[C@H]4F)c3n2)CC1 [Example 229, 2-[(1-acryloylpiperidin-4-yl)oxy]-N-[(1R,2R)-2-fluorocyclopentyl]-5H-pyrrolo[2,3-b]pyrazine-7-carboxamide]	60	221
C=CC(=O)N1CCN(c2cnc3[nH]cc(C(=O)N[C@H]4CCO[C@H]4C)c3n2)CC1(C)C [Example 166, 3-({[2-(4-acryloyl-3,3-dimethylpiperazin-1-yl)-5H-pyrrolo[2,3-b]pyrazin-7-yl]carbonyl}amino)-2,5-anhydro-1,3,4-trideoxy-L-threo-pentitol]	58	168
C=CC(=O)N1CC[C@H](Nc2cnc3[nH]cc(C(=O)NCCCC(F)(F)F)c3n2)[C@H](OC)C1 [Example 319, 2-{[(3R,4S)-1-acryloyl-3-methoxypiperidin-4-yl]amino}-N-(4,4,4-trifluorobutyl)-5H-pyrrolo[2,3-b]pyrazine-7-carboxamide]	45	211
C=CC(=O)N1CC[C@H](Nc2cnc3[nH]cc(C(=O)NCC(F)(F)F)c3n2)[C@H](OC)C1 [Example 293, 2-{[(3R,4S)-1-acryloyl-3-methoxypiperidin-4-yl]amino}-N-(2,2,2-trifluoroethyl)-5H-pyrrolo[2,3-b]pyrazine-7-carboxamide]	51	218
C=CC(=O)N1CCC(Oc2cnc3[nH]cc(C(=O)N[C@@H]4CCC[C@@H]4F)c3n2)CC1 [Example 230, 2-[(1-acryloylpiperidin-4-yl)oxy]-N-[(1R,2S)-2-fluorocyclopentyl]-5H-pyrrolo[2,3-b]pyrazine-7-carboxamide]	34	155
C=CC(=O)N1CC[C@H](Nc2cnc3[nH]cc(C(=O)NCC(C)CC(F)(F)F)c3n2)[C@H](OC)C1 (mixture of isomers) [Example 328, Racemic-2-{[(3R,4S)-1-acryloyl-3-methoxypiperidin-4-yl]amino}-N-(4,4,4-trifluoro-2-methylbutyl)-5H-pyrrolo[2,3-b]pyrazine-7-carboxamide]	37	143
C=CC(=O)N1CC[C@@H](Nc2cnc3[nH]cc(C(=O)NCC)c3n2)[C@H](C)C1 (single isomer, unassigned) [Example 44]	47	315
C=CC(=O)N1CCN(c2cnc3[nH]cc(C(=O)NCC(C)C)c3n2)C[C@@H]1CC(C)C [Example 288, 2-[(3S)-4-acryloyl-3-(2-methylpropyl)piperazin-1-yl]-N-(2-methylpropyl)-5H-pyrrolo[2,3-b]pyrazine-7-carboxamide]	57	151
C=CC(=O)N1C[C@H](CN2CC[C@H](C#N)C2)C[C@H](Nc2ncnc3[nH]ccc23)C1 [Example 108, (S)-1-(((3S,5S)-5-((7H-pyrrolo[2,3-d]pyrimidin-4-yl)amino)-1-acryloylpiperidin-3-yl)methyl)pyrrolidine-3-carbonitrile]	136	3260
C=CC(=O)N1CCN(c2cnc3[nH]cc(C(=O)N[C@@H](C)COC)c3n2)CC1(C)C [Example 298, 2-(4-acryloyl-3,3-dimethylpiperazin-1-yl)-N-[(2S)-1-methoxypropan-2-yl]-5H-pyrrolo[2,3-b]pyrazine-7-carboxamide]	69	210
C=CC(=O)N1CC[C@@H](Oc2cnc3[nH]cc(C(=O)N[C@@H](C)COC)c3n2)C[C@@H]1C (racemic) [Example 71, Trans-racemic-2-{[1-acryloyl-2-methylpiperidin-4-yl]oxy}-N-[(2S)-1-methoxypropan-2-yl]-5H-pyrrolo[2,3-b]pyrazine-7-carboxamide]	54	260
C=CC(=O)N1CC[C@@H](Nc2cnc3[nH]cc(C(=O)NCC)c3n2)C[C@@H]1C (single isomer, unassigned) [Example 42]	50	357
C=CC(=O)N(C)C1CN(c2cnc3[nH]cc(C(=O)N[C@H](C)COC)c3n2)C1 [Example 86, 2-{3-[acryloyl(methyl)amino]azetidin-1-yl}-N-[(2R)-1-methoxypropan-2-yl]-5H-pyrrolo[2,3-b]pyrazine-7-carboxamide]	94	260
C=CC(=O)N1CC(CF)CC(Nc2ncnc3[nH]ccc23)C1 (mixture of isomers) [Example 102, Cis-racemic-1-[3-(fluoromethyl-5-(7H-pyrrolo[2,3-d]pyrimidin-4-ylamino)piperidin-1-yl]prop-2-en-1-one]	142	237
C=CC(=O)N1CC[C@H](Nc2cnc3[nH]cc(C(=O)NCC)c3n2)[C@H](OC)C1 [Example 326, 2-{[(3R,4S)-1-acryloyl-3-methoxypiperidin-4-yl]amino}-N-ethyl-5H-pyrrolo[2,3-b]pyrazine-7-carboxamide]	50	330
C=CC(=O)N1CC[C@@H](Nc2cnc3[nH]cc(C(=O)N[C@H](C)COC)c3n2)[C@@H](OC)C1 [Example 331, 2-{[(3S,4R)-1-acryloyl-3-methoxypiperidin-4-yl]amino}-N-[(2R)-1-methoxypropan-2-yl]-5H-pyrrolo[2,3-b]pyrazine-7-carboxamide]	42	288

These reach a lower IC50 (JAK3 enzyme). Values come first.

IC50 (JAK3 enzyme) [nM]	Compound	IC50 [1] [nM]
33	C=CC(=O)N1CC[C@@H](Oc2cnc3[nH]cc(C(=O)N[C@@H](C)COC)c3n2)C[C@@H]1C (single isomer, unassigned) [Example 73]	174
29	C=CC(=O)N1CCN(c2cnc3[nH]cc(C(=O)N[C@@H](C)COC)c3n2)CC1 [Example 295, 2-(4-acryloylpiperazin-1-yl)-N-[(2S)-1-methoxypropan-2-yl]-5H-pyrrolo[2,3-b]pyrazine-7-carboxamide]	71
25	C=CC(=O)N1CCC(Oc2cnc3[nH]cc(C(=O)NC4CCCC4(F)F)c3n2)CC1 (stereo not shown) [Example 219, 2-[(1-acryloylpiperidin-4-yl)oxy]-N-(2,2-difluorocyclopentyl)-5H-pyrrolo[2,3-b)pyrazine-7-carboxamide]	134
24	C=CC(=O)N1CC[C@H](Nc2cnc3[nH]cc(C(=O)NCC)c3n2)C[C@H]1C (racemic) [Example 40, Trans-racemic-2-{[(2R,4S)-1-acryloyl-2-methylpiperidin-4-yl]amino}-N-ethyl-5H-pyrrolo[2,3-b]pyrazine-7-carboxamide]	134
22	C=CC(=O)N1CCN(c2cnc3[nH]cc(C(=O)N[C@H](C)COC)c3n2)CC1 [Example 332]	87.7
18	C=CC(=O)N1CCC(Oc2cnc3[nH]cc(C(=O)N[C@@H](C)COC)c3n2)CC1 [Example 228, 2-[(1-acryloylpiperidin-4-yl)oxy]-N-[(2S)-1-methoxypropan-2-yl]-5H-pyrrolo[2,3-b]pyrazine-7-carboxamide]	93.3
6	C=CC(=O)N1CCC(Nc2cnc3[nH]cc(C(=O)NCCC4CC4)c3n2)CC1 [Example 178, 2-[(1-acryloylpiperidin-4-yl)amino]-N-(2-cyclopropylethyl)-5H-pyrrolo[2,3-b]pyrazine-7-carboxamide]	88.6
6	C=CC(=O)N1CCC(Nc2cnc3[nH]cc(C(=O)NCc4ccc(F)cc4)c3n2)CC1 [Example 188, 2-[(1-acryloylpiperidin-4-yl)amino]-N-(4-fluorobenzyl)-5H-pyrrolo[2,3-b]pyrazine-7-carboxamide]	88
5	C=CC(=O)N1CCC(Nc2cnc3[nH]cc(C(=O)NCc4ccccc4F)c3n2)CC1 [Example 196, 2-[(1-acryloylpiperidin-4-yl)amino]-N-(2-fluorobenzyl)-5H-pyrrolo[2,3-b]pyrazine-7-carboxamide]	54.7

Reference: US10703756B2, “Pyrrolo[2,3-D]pyrimidinyl, pyrrolo[2,3-B]pyrazinyl, pyrrolo[2,3-B]pyridinyl acrylamides and epoxides thereof” (Pfizer Inc., priority 2015, dated 2020)
